Reference: US8614063B2, “Methods for screening for compounds for treating cancer” (PTC Therapeutics, Inc., priority 2008, dated 2013)

Legend:
[1] = tested on: firefly luciferase (fLuc) reporter gene flanked by the 5′-UTR and 3′-UTR of Bmi-1 mRNA; test: Luciferase reporter gene assay in stable 293H cells; type: cell-based; details: Homo sapiens, fLuc flanked by Bmi-1 5′-UTR and 3′-UTR
Excerpt: A high-level expression vector, pcDNA™3.1/Hygro (Invitrogen Corp., Carlsbad, Calif.) was used for preparing the constructs comprising the luciferase gene flanked by any of the Bmi-1 5′-UTR and 3′-UTR, or the Bmi-1 5′-UTR or the Bmi-1 3′-UTR of Bmi-1 mRNA. In a pcDNA™3.1/Hygro vector, the UTRs and restriction sites associated with cloning, expressing, or cloning and expressing a gene of interest or a reporter gene were removed or replaced. For each construct containing 5′-UTR sequences, the 5′-UTR sequences with the first 21 nucleotides of Bmi-1 ORF were cloned into the vector using the appropriate restriction sites so that the first 21 nucleotides were in frame with the luciferase reporter gene.
The cells were passaged every 4 days at 1:10 dilution. Cultures were kept in a 37° C. and 5% CO2 incubator. The cells were scaled-up over a three day period before performing the assay. Two confluent T175 flasks were split into twenty T175 flasks (1:10 dilution). Cells were harvested from each confluent flask by removing all of the media and adding 4 mL of warmed trypsin to dislodge the cells. After the cells were dislodged, 16 mL of selective media was added for a final volume of 20 mL. The cells were expanded by adding 2 mL of the harvested cells into ten new T175 flasks plus 25 mL of selective media. The twenty new flasks are placed into the 37° C., 5% CO2 incubator. On the day the assay was performed, the media was removed from the flasks and 3 mL of warmed trypsin was added to dislodge the cells. After the cells were dislodged, 10 mL of nonselective media was to the flask. This was repeated for all twenty flasks and combined into one flask. 100 μL of the above cell culture plus 100 μL of Trypan Blue stain was counted on a hemocytometer.
Luciferase activity was immediately assayed using a ViewLux Imaging system (Perkin Elmer).

[2] = tested on: Bmi-1; test: Bmi-1 Sandwich ELISA (endogenous Bmi-1 protein in HT-1080 cells); type: cell-based, human; details: 40-48 hours compound treatment
Procedure: In another embodiment, the levels of endogenous Bmi-1 are determined by the Bmi-1 Sandwich ELISA. A Sandwich ELISA measures the amount of antigen, in this case Bmi-1, between two layers of antibodies (i.e. capture and detection antibody). The capture antibody is immobilized in the wells of an ELISA plate and when a cell lysate or other sample is added to the plate, the specific protein of interest (Bmi-1) is bound by this capture antibody. A second antibody, called the detecting antibody, is then added, which binds to the bound protein and helps increase the signal. […] Either monoclonal or polyclonal antibodies can be used as the capture and detection antibodies in Sandwich ELISA systems. Monoclonal antibodies recognize a single epitope that allows fine detection and quantification of […] differences in antigen. A polyclonal is often used as the capture antibody to pull down as much of the antigen as possible.
HT-1080 cells were seeded at 5000 cells/well (50 μL) in 96-well tissue culture plates. After the cells become adherent (3-4 hours), 2× diluted stocks of compounds in 50 μL DMEM containing 1% DMSO (final DMSO concentration was 0.5%) were added and the plates were incubated at 37° C. under 5% CO2 for 40-48 hours
The plate was covered with a plate seal and allowed to stand overnight.
1× Lysis Buffer (40 μL) was added to each well and the plate was shaken for 5-10 minutes on an orbital shaker to allow cell lysis, then Diluent (1% BSA in PBS in 0.5% NP40) (100 μL) was added to each well.
Aliquots can be kept at 4° C. and reused after first thaw, but only for 1-2 weeks. The Bmi-1 Recombinant Protein Standard contains a GST and thus will show up on western blots around 70 Kda.
The prepared ELISA plate was washed 3× with Wash Buffer (0.05% Tween-20 in PBS). The final wash was removed from the plate and the plate was blotted dry on paper towels. Blocking Buffer (300 μL) (1% BSA in PBS) was added per well. The plate was covered with a plate seal and incubated at room temperature for 1 hour. The blocked plate was washed 3× with Wash Buffer, the final wash was removed and the plate was blotted dry on paper towels. The previously prepared samples and standards were added (at 100 μL/well) and the plate was covered with a plate seal and incubated at 4° C. overnight.
The prepared ELISA plate was removed from 4° C., incubated at room temperature for 30 minutes, then washed and blotted dry as previously described for Day 3. […] The plate was covered with a plate seal and incubated for 1.5 hrs at room temperature.
The ELISA plate was washed and blotted dry as previously described.
The plate was incubated for 20-30 minutes at room temperature in the dark, then Stop Solution (2 M sulfuric acid in water) ([…]) was added per well. The plates were read at OD450 (experimental) and OD570 (reference).

[3] = CellTiter-Glo cytotoxicity assay, U937; type: cell-based; details: human, U937 cells (monocyte cell line); U937, relatively sensitive cell line
Excerpt: To evaluate cytotoxicity of the compounds in the 293H cell lines, the CellTiter-Glo® assay (Promega) is utilized. CellTiter-Glo® determines the number of viable cells in culture based on quantification of the ATP present, which signals the presence of metabolically active cells. A reduction in cellular ATP is indicative of a cytotoxic or cytostatic effect. Doxorubicin, a known cytotoxic compound, is used to address the sensitivity of the tested cell line. For relatively sensitive cell lines, such as U937 (a human monocyte cell line), the CC50 of doxorubicin ranges from 4 to 10 nM.

[4] = CellTiter-Glo cytotoxicity assay, Huh7; type: cell-based; details: human, Huh7 cells (hepatocellular carcinoma cell line); Huh7, intermediate level of sensitivity

| EC50 [1] [nM] | EC50 [2] [nM] | Structure (SMILES) | CC50 [3] [nM] | CC50 [4] [nM] |
| --- | --- | --- | --- | --- |
| 530 | 410 | COc1cc(Br)c(Nc2nc(-c3c(C)nc4ncccn34)cs2)c(Br)c1 [Compound 1, N-(2,6-dibromo-4-methoxyphenyl)-4-(2-methylimidazo[1,2-a]pyrimidin-3-yl)thiazol-2-amine] | – | – |
| 910 | 660 | COc1cc(Cl)c(Nc2nc(-c3c(C)nc4ncccn34)cs2)c(Cl)c1 [Compound 2, N-(2,6-dichloro-4-methoxyphenyl)-4-(2-methylimidazo[1,2-a]pyrimidin-3-yl)thiazol-2-amine] | – | – |
| 17600 | > 3000 | COc1cc(F)c(Nc2nc(-c3c(C)nc4ncccn34)cs2)c(F)c1 [Compound 3, N-(2,6-difluoro-4-methoxyphenyl)-4-(2-methylimidazo[1,2-a]pyrimidin-3-yl)thiazol-2-amine] | – | – |
| 540 | 320 | Cc1cc(Br)c(Nc2nc(-c3c(C)nc4ncccn34)cs2)c(Br)c1 [Compound 4, N-(2,6-dibromo-4-methylphenyl)-4-(2-methylimidazo[1,2-a]pyrimidin-3-yl)thiazol-2-amine] | – | – |
| 800 | 710 | Cc1nc2ncccn2c1-c1csc(Nc2c(Br)cc(Br)cc2Br)n1 [Compound 5, 4-(2-methylimidazo[1,2-a]pyrimidin-3-yl)-N-(2,4,6-tribromophenyl)thiazol-2-amine] | – | – |
| 2600 | 1700 | COCCOc1cc(Br)c(Nc2nc(-c3c(C)nc4ncccn34)cs2)c(Br)c1 [Compound 6, N-(2,6-dibromo-4-(2-methoxyethoxy)phenyl)-4-(2-methylimidazo[1,2-a]pyrimidin-3-yl)thiazol-2-amine] | – | – |
| 750 | 360 | COc1cc(Br)c(Nc2nc(-c3cnc4ccc(Cl)cn34)cs2)c(Br)c1 [Compound 7, 4-(6-chloroimidazo[1,2-a]pyridine-3-yl)-N-(2,6-dibromo-4-methoxyphenyl)thiazol-2-amine] | – | – |
| 3800 | 390 | Cc1cc(Br)c(Nc2nc(-c3cnc4ccc(Cl)cn34)cs2)c(Br)c1 [Compound 8, 4-(6-chloroimidazo[1,2-a]pyridine-3-yl)-N-(2,6-dibromo-4-methylphenyl)thiazol-2-amine] | – | – |
| 940 | 1090 | COc1cc(Cl)c(Nc2nc(-c3cnc4ccc(Cl)cn34)cs2)c(Cl)c1 [Compound 9, 4-(6-chloroimidazo[1,2-a]pyridine-3-yl)-N-(2,6-dichloro-4-methoxyphenyl)thiazol-2-amine] | – | – |
| – | – | COc1cccc2c1C(=O)c1c(O)c3c(c(O)c1C2=O)C[C@@](O)(C(=O)CO)C[C@@H]3O[C@H]1C[C@H](N)[C@H](O)[C@H](C)O1 [doxorubicin, Doxorubicin] | 4 to 10 | 70 to 300 |
